SMILES strings stand for the structures. Some results are limits rather than exact numbers.

Compound `CCOC(=O)C=Cc1ccc(C(=O)Cl)cc1` came in with a melting point of 76.8 °C. Regarding `CC(=O)NN=C(C(=O)NN)c1ccccc1`, the melting point was determined as 177 °C.

Compound `N#CC1Cc2ccc(Nc3ccncc3N)cc2C1` (stereo not given) came in with a melting point of 98 to 100 °C. Then `CN1C(=O)C(=O)c2cc(S(=O)(=O)N3CCC[C@H]3COc3ccccc3)ccc21`, with 160 to 161 °C; and `O=C(NCc1ccc(Cl)cc1)c1cn(CCCc2ccccc2)c2sc(CN3CCOCC3)cc2c1=O`, with 169 to 171 °C.

For the compound `CCOC(=O)c1cn(-c2cccc(Oc3ccc(Br)cn3)c2)cn1`, the melting point lay within 103 to 105 °C. Next, `CN(C)CCc1ccc(NC=O)c2[nH]ncc12`: 210 to 211 °C. `CC(C)(C)C(=O)c1c[nH]nc1N` registered a melting point of 159 to 160 °C. Then `c1coc2cc3ccnc3cc2c1`, with 97 °C; and `C=C(C)Cc1c(O)c2c(c3c1CC(C)(C)N=C3c1ccccc1)CC(C)(C)O2`, with 196 to 198 °C; and `O=C(O)CCc1oc(-n2ccnc2)nc1-c1ccc(Cl)cc1`, with 194 to 195 °C. Compound `CC(C)c1nc2c([nH]1)c(=O)[nH]c(=O)n2Cc1ccncc1` yielded a melting point of 305 to 307 °C. `CC1c2ccccc2-c2ccccc2N1S(=O)(=O)c1ccc(O)c(C(=O)O)c1` (stereo not given) came in with a melting point of 225 to 230 °C.

The compound `C=C(C)c1ccc(C(=O)C2=C(O)C(=O)N(c3ccc(C)nn3)C2c2ccc(OC(F)(F)F)cc2)cc1` (stereo not given) displayed a melting point of 253 °C. Next, `O=C(Nc1ccccn1)c1cccc(-c2cccc(OCCc3ccc(Cl)cc3Cl)n2)c1`: 113 to 115 °C; `Cc1cc(C(C)(C)CCl)c(C)nn1`: 57 to 59 °C; `COc1ccc(Cl)cc1N1C(=O)CN(C)C1=S`: 245 to 247 °C.

As to `CCOC(=O)c1cc2c(C)c([N+](=O)[O-])c(C)c(C)c2o1`, the melting point lay within 126 to 128 °C. With `CC(C)CC(CS)C(=O)N[C@@H](C)C(=O)N[C@@H](CCCNC(=N)N)C(=O)O` (stereo not given in full), the melting point was 140 to 150 °C.

`COc1cccc2c(=O)[nH]ccc12` yielded a melting point of 215 to 217 °C. `C=Cc1nc(-c2ccco2)c2ncn(Cc3ccc(OC)cc3)c2n1` returned a melting point of 94 to 95 °C.

With `COC(=O)Cc1nc(-c2ccc3ccccc3c2)oc1C`, the melting point is 86 to 87 °C. In turn, `O=C(Nc1ccc(Oc2ccnc(N3CCCCC3)n2)c2ccccc12)c1cc(F)cc(N2CCOCC2)c1` returned a melting point of 190 to 191 °C.

Compound `COC(=O)[C@H](Cc1cccc(Br)c1)NC(=O)OC(C)(C)C` had a melting point of 60 to 61 °C. Next, `Cc1ccc(C2(O)CCN(CCCc3nnc4n3CCCCC4)CC2)cc1`: 160 to 161 °C; `COC(=O)c1cc(Cl)ccc1OCc1ccccc1`: 54.5 to 55 °C. Next, `O=P1(c2cccc(C(F)(F)F)c2)c2ccccc2CN1c1ccccc1` (stereo not given): 48 to 51 °C. The compound `CC(=O)COc1ccc2cc(S(N)(=O)=O)sc2c1` displayed a melting point of 181 to 185 °C. `Cc1sc2[nH]c(=O)n(Cc3ccc(Cl)cc3)c(=O)c2c1C` showed a melting point of 291 to 292 °C. Next, `COc1ccc(/C=C(\C#N)c2ccccc2C(F)(F)F)cc1OC1CCCC1`: 96 to 98 °C; `CCCCCCc1cc(CO)c(-c2ccccc2)c(-c2ccccc2)c1CO`: 136 to 137 °C. Next, `CC(C)(C)OC(=O)n1cccc1-c1ccc(C[C@H](NC(=O)c2c(Cl)cccc2Cl)C(=O)O)cc1`: 98 to 99 °C; `COc1cc(OC)nc(NC(=O)NS(=O)(=O)c2ncccc2OS(=O)(=O)N(C)C)n1`: 155 to 157 °C; `CC(=O)c1c(Cl)nc2n(c1=O)CCS2`: 135 to 136 °C. In turn, `Cc1cc(C)c(Nc2nc(C)ncc2S(=O)(=O)c2ccc(N3CCCC3)cc2)c(C)c1` returned a melting point of 196 to 198 °C.

Take `CCc1c(CCNC(=O)C(F)(F)F)ccc(OC)c1OC`: the melting point lay in the range of 80 to 81 °C. Then `CN=C1SCC(O)(c2ccc(Cl)c(S(=O)(=O)NCC(C)OC)c2)N1C` (stereo not given), with 148 °C. Then `CN(C)CCNC(=O)Nc1ccccc1`, with 141 to 142 °C. Then `CC(O)(CCSc1cc(C(C)(C)C)c(O)c(C(C)(C)C)c1)CC(=O)CCSc1cc(C(C)(C)C)c(O)c(C(C)(C)C)c1` (stereo not given), with 108 to 110 °C. Consider `CC(=O)CC(=O)N1c2ccc(C(O)(C(F)(F)F)C(F)(F)F)cc2CC1C` (stereo not given), for which the melting point was 118 to 119 °C. The compound `CC(C)(CNS(C)(=O)=O)Nc1nc(Cl)ncc1Cl` registered a melting point of 156 to 158 °C. `COc1cccc(/C=C/C2=CCN(Cc3c[nH]c4ncccc34)CC2)c1` showed a melting point of 186 to 188 °C.

The compound `O=C1Cc2cccc(Oc3ccccn3)c2N1` displayed a melting point of 187 to 191 °C. `FC(F)(F)Oc1ccc(-c2nccc(Cl)n2)cc1` showed a melting point of 70 to 73 °C.

Turning to `CN1CCN(c2ccc(C(=O)NCCCCCCCCCCCO[N+](=O)[O-])cn2)CC1`, the melting point is 95 to 96 °C. The compound `COc1cc(O)c2c(=O)c(OC)c(-c3ccc(O)cc3)oc2c1` had a melting point of 252 to 253 °C. Next, `O=C(O)CCCCCCOc1cccc(-c2ccccc2)n1`: 74 to 75 °C; `O=C(Nc1cc(Cl)cc(Cl)c1)Nc1ccc(Cl)cc1-c1nnn[nH]1`: 234 to 236 °C; `O=C(Nc1ccccc1)Nn1ccc2ccccc21`: 243 °C. With `O=C(NCc1ccc(Cl)cc1)c1cnc2sc(C#CCCO)cc2c1O`, the melting point is 242 to 246 °C. Next, `CCCCCCCCCCCCc1ccc(S(=O)(=O)Nc2nnc(C)s2)cc1`: 149 to 150 °C; `CCc1nc(CCc2cccc(N)c2)sc1C`: 64 to 65 °C; `CN(Cc1cccc(-c2ccc(CC3SC(=O)NC3=O)cc2)c1)C(=O)c1ccc(O)cc1` (stereo not given): 110 °C. Next, `CC(C)(S)CN1CCN(C(=O)c2ccc(O)cc2)CC1`: 46 °C. As for `O=C(O)c1cc2ccccc2nc1C(=O)O`, the melting point lay within 271 to 277 °C. On to `CN(C(=O)c1cnn(C)c1C(=O)Nc1ccn2nc(N3CCOCC3)nc2c1)C1CC1`, for which the melting point lay in the range of 172 to 175 °C. The compound `Cc1cnc2c(NC(=O)c3c(Cl)cccc3Cl)cccc2c1-n1ccc(=O)cc1` displayed a melting point of 280 to 282 °C. `NC(=O)c1ccc(N2CCN(Cc3cn4cc(Cl)ccc4n3)CC2)c(Cl)c1` displayed a melting point of 254 to 256 °C. Next, `COc1cc(Nc2c(C#N)cnc3cc(-c4cccc(CN5CCN(C)CC5)c4)ccc23)c(Cl)cc1Cl`: 104 to 106 °C. Next, `CN(C)N1C(=O)c2ccccc2NS1(=O)=O`: 168 °C.

As for `Cc1cn([C@H]2CC(N=[N+]=[N-])[C@@H](COC(=O)C(C)(C)CC(=O)N[C@@H](Cc3ccccc3)[C@H](O)C(=O)N3CSC(C)(C)[C@H]3C(=O)NC(C)(C)C)O2)c(=O)[nH]c1=O` (stereo not given in full), the melting point fell in the range of 95 to 97 °C. Next, `CCCc1c(OCC(O)COc2cccc(N)c2)ccc(C(C)=O)c1O` (stereo not given): 85 to 89 °C; `COc1ccc2cc3c(c(-c4ccc(F)cc4)c2c1)C(=O)NC3=O`: 281 to 284 °C; `COc1ccc(C(=O)Nc2cnc3c(c2)CN(Cc2ccccc2)CC3)cc1Br`: 214 to 215 °C. `Cc1cc2nc(/C=C/c3ccccc3)n(-c3ccccn3)c2cc1C` had a melting point of 136 to 137 °C. Next, `CCC(CC)Oc1cc(C)nc(Nc2c(C)cc(C)cc2C)c1C(=O)C#N`: 108 to 110 °C; `NC(=O)c1cccc2nnsc12`: 270 to 272 °C.

`Cc1ccnc(-c2ccc(CBr)cc2)n1`: the melting point fell in the range of 104 to 106 °C. In turn, `CC/C(=C\c1ccc(OCCOC)cc1Oc1ncc(Cl)cc1Cl)C(=O)O` gave a melting point of 139 to 140 °C. The compound `O=C(NCCO)c1ccc2c3c(cc([N+](=O)[O-])c2c1)NCC3CCl` (stereo not given) displayed a melting point of 150 to 151 °C. In turn, `c1ccc2c(C3CCCc4cncn43)noc2c1` (stereo not given) showed a melting point of 250 to 252 °C. Then `COC(=O)C(=C1NCCCS1)[N+](=O)[O-]`, with 107 to 108 °C; and `O=[N+]([O-])c1cc(C(O)CCN2CCC(c3ccccc3)CC2)ccc1C1CCCCC1` (stereo not given), with 148 to 150 °C. Next, `CCOC(=O)C1=C(Nc2ccc(C(=O)OCC)cc2)OCC1=O`: 152 to 153 °C; `COc1ccc([N+](=O)[O-])c2c1OCC(C(=O)O)C2` (stereo not given): 181 to 183 °C; `CC(=O)N1c2ccc(S(=O)(=O)C[N+](=O)[O-])c(C)c2CC1C` (stereo not given): 157 °C. Next, `CCCc1c(OCCCCCCc2cccc(OCCCC(=O)O)c2CCC(=O)O)ccc2c1OCCC2=O`: 116 to 118 °C; `Cc1cc(Cl)nc(Cl)c1N`: 83 to 85 °C; `N#Cc1nn(-c2c(Cl)cc(C(F)(F)F)cc2Cl)c(N)c1-c1cc(Cl)oc1Cl`: 193 to 194 °C. As for `CCN1CCC(c2ccccc2)=C(C(=O)OCC2CCCCC2)C1`, the melting point was 94 to 97 °C. Next, `CC1(C)CC(N2C(=O)c3ccc(C(=O)O)cc3C2=O)CC(C)(C)N1`: above 225 °C; `COC(=O)C1OC2(CCC3(CC2)OC(C(=O)OC)C(C(=O)OC)O3)OC1C(=O)OC` (stereo not given): 75 to 77 °C.

Consider `CCCCCC[C@@H](CC(N)=O)N(CCC)C(=O)[C@H](CCCC(=O)O)NC(=O)c1cn(Cc2ccccc2)c2ccccc12`, for which the melting point lay within 147 to 157 °C. For the compound `CCS(=O)c1c(C#N)nn(-c2c(Cl)cc(C(F)(F)F)cc2Cl)c1NC` (stereo not given), the melting point amounted to 142 °C. For the compound `N#Cc1cc(C(=O)O)c2c(c1)C(C(=O)O)CCN2` (stereo not given), the melting point is 235 to 236 °C. In turn, `O=C(CC=C(Cl)Cl)Oc1ccc([N+](=O)[O-])cc1` gave a melting point of 80 to 90 °C. Then `CCC(=O)c1[nH]c2cc(Cl)ccc2c1N`, with 144 to 146 °C; and `CC(=O)c1cc(N(C)C)ccc1NC(=O)c1ccccc1OCc1ccccc1`, with 132 to 134 °C. The compound `COC(=O)c1cc[nH]c1` yielded a melting point of 78 to 81 °C. Consider `N#Cc1cc(Cl)cc(Oc2ccc(CC(=O)Nc3ccc(CS(N)(=O)=O)cc3)cc2Br)c1`, for which the melting point was in the range of 133 to 135 °C.

The term melting point denotes the temperature of the solid-liquid transition.

Values taken from a melting point compilation (Tetko et al.; mined from patent text by program, amines drawn as free bases though some values may be those of a salt).
